{"source": "patent US20070231334A1", "about": "(priority 2004, published 2007)", "molecules": {"B1": {"name": "SBTI (protein, UniProt P01070 25-205, looked up)", "Trypsin inhibitor A": "DFVLDNEGNPLENGGTYYILSDITAFGGIRAAPTGNERCPLTVVQSRNELDKGIGTIISSPYRIRFIAEGHPLSLKFDSFAVIMLCVGIPTEWSVVEDLPEGPAVKIGENKDAMDGWFRLERVSDDEFNNYKLVFCPQQAEDDKCGDIGISIDHDDGTRRLVVSKNKPLVVQFQKLDKESL"}, "B2": {"name": "thermolysin: thermolysin (EC 3.4.24.27) from Bacillus thermoproteolyticus (protein, UniProt P00800 233-548, looked up)", "Thermolysin": "ITGTSTVGVGRGVLGDQKNINTTYSTYYYLQDNTRGNGIFTYDAKYRTTLPGSLWADADNQFFASYDAPAVDAHYYAGVTYDYYKNVHNRLSYDGNNAAIRSSVHYSQGYNNAFWNGSQMVYGDGDGQTFIPLSGGIDVVAHELTHAVTDYTAGLIYQNESGAINEAISDIFGTLVEFYANKNPDWEIGEDVYTPGISGDSLRSMSDPAKYGDPDHYSKRYTGTQDNGGVHINSGIINKAAYLISQGGTHYGVSVVGIGRDKLGKIFYRALTQYLTPTSNFSQLRAAAVQSATDLYGSTSQEVASVKQAFDAVGVK"}}, "key": {"[1]": {"tested_on": "hemorrhagic activity of B. anthracis culture supernatant (BACS)", "parameters": "species or system B. anthracis (delta Ames)", "conditions": "in vivo, sc"}, "B. anthracis (Sterne)": {"tested_on": "B. anthracis (Sterne)", "parameters": "species or system Bacillus anthracis", "conditions": "in vivo"}, "[2]": {"tested_on": "BACS proteolytic activity", "type": "biochemical, B. anthracis"}, "[3]": {"conditions": "mouse, in vivo"}}, "note": "Entries after “also recorded” stand apart in the source; their conditions may differ. Read-outs that look alike come from different tables or passages of the source."}
{"molecule": "O=C(O)CN(CCN(CC(=O)O)CC(=O)O)CC(=O)O", "note": "[EDTA, ethylenediaminetetraacetic acid]", "values": [{"measurement": "suppression of hemorrhagic effect of BACS", "setting": "[1]", "value": "effectively abrogated"}]}
{"molecule": "O=C(O)c1cn(C2CC2)c2cc(N3CCNCC3)c(F)cc2c1=O", "note": "[ciprofloxacin]", "values": [{"measurement": "effectiveness of treatment", "setting": "B. anthracis (Sterne)", "value": "ineffective"}, {"measurement": "survival", "setting": "B. anthracis (Sterne)", "value": 20, "unit": "%"}, {"measurement": "survival (effectiveness)", "setting": "B. anthracis (Sterne)", "value": 70, "unit": "%"}, {"measurement": "survival", "setting": "B. anthracis (Sterne); ip", "value": 20, "unit": "%"}]}
{"molecule": "C[C@H]1c2cccc(O)c2C(=O)C2=C(O)[C@]3(O)C(=O)C(C(N)=O)=C(O)[C@@H](N(C)C)[C@@H]3[C@@H](O)[C@@H]21", "note": "[doxycycline]", "values": [{"measurement": "survival", "setting": "B. anthracis (Sterne); ip", "value": 30, "unit": "%"}]}
{"molecule": "CC[C@@H](C)[C@@H](O)[C@H](C)C(=O)[C@H](C)/C=C(\\C)C[C@H](C)[C@@H]1OC(=O)[C@H]1CC", "note": "[ebelactone B]", "values": [{"measurement": "effect on survival / protection", "setting": "B. anthracis (Sterne)", "value": "did not increase survival over the effects of doxycycline alone"}]}
{"molecule": "c1cnc2c(c1)ccc1cccnc12", "note": "[phenanthroline, 1,10-phenanthroline]", "values": [{"measurement": "inhibition of hydrolysis of gelatin and casein by BACS", "setting": "[2]", "value": "inhibited"}]}
{"molecule": "CC(C)C[C@H](NP(=O)(O)O[C@@H]1O[C@@H](C)[C@H](O)[C@@H](O)[C@H]1O)C(=O)N[C@@H](Cc1c[nH]c2ccccc12)C(=O)O", "note": "[phosphoramidon]", "values": [{"measurement": "inhibition of hydrolysis of gelatin and casein by BACS", "setting": "[2]", "value": "inhibited"}, {"measurement": "suppression of hemorrhagic effect of BACS", "setting": "[1]", "value": "effective; also recorded: effectively abrogated"}]}
{"molecule": "B1", "values": [{"measurement": "suppression of hemorrhagic effect of BACS", "setting": "[1]", "value": "effectively abrogated"}]}
{"molecule": "B2", "values": [{"measurement": "dose range in which hemorrhagic activity was detectable", "setting": "[3]", "value": "10 to 100", "unit": "µg"}]}
